Results published in paper PMC2187893 (The Journal of Experimental Medicine, 1990).

How the values were obtained:
Format in all cases: cell-based
[1] = test system: human peripheral blood T cells; test: Naloxone inhibition of T cell migration to stimuli; details: for Effect of naloxone on specific migration (percent response): naloxone-treated/nontreated x 100%; for Specific migration with naloxone / Specific migration without naloxone: spontaneous locomotion subtracted
[2] = test system: human peripheral blood T lymphocytes; test: T cell migration assay in microchemotaxis chamber; details: peptides at 10 -5 M in lower wells, 1.5 h at 37C, Fig. 3; Dunnett's test
[3] = test system: human peripheral blood T lymphocytes; test: Migration assay with or without concentration gradient
[4] = donor 5, stimulus at 10^-5 M, naloxone 10^-5 M
[5] = doses between 10-13 and 10^-9 M, migration only when a gradient existed
[6] = donor 4, stimulus at 10^-9 M, naloxone 10^-5 M

## C=CCN1CC[C@]23c4c5ccc(O)c4O[C@H]2C(=O)CC[C@@]3(O)[C@H]1C5 [naloxone, Naloxone]
[1]; naloxone 10^-5 M, cells pretreated 15 h at 37C, IL-2 100 U/ml, Table 1
  effect of naloxone on locomotion caused by IL-2: no effect
[1]; naloxone 10^-5 M, cells pretreated 15 h at 37C, Table 1
  effect of naloxone on T cell migration in response to MET-ENK or LEU-ENK: inhibited

## (D-Ala2, o- Leu']-enkephalin [DADLE]
[2]
  T cell migration response compared with spontaneous locomotion: greater then spon- taneous locomotion

## /3-END: purified human beta-endorphin from Calbiochem-Behring Corp.; endogenous opioid neurohormone (YGGFMTSEKSQTPLVTLFKNAIIKNAYKKGE; Beta-endorphin; UniProt P01189 237-267, looked up)
[3]; 10-9, 10^-7 and 10^-5 M, single donor, Fig. 2, p >0.05, NS
  T cell migration without gradient (stimulus in upper and lower chambers): equivalent to the spontaneous locomotion
[3]; beta-END, Fig. 2, 10^-9 to 10^-5 M
  type of locomotion stimulated: chemotactic

## H-Gly-Gly-Phe-Leu-OH [DesTyr-LEU-ENK]
[2]
  T cell migration response compared with spontaneous locomotion: no effect on T cell migration

## Tyr-Gly-Gly-Phe-Leu [LEU-ENK, leucine-enkephalin]
[1]; [4]
  Effect of naloxone on specific migration (percent response): 18.4%
  Specific migration with naloxone: 582
[1]; donor 5, stimulus at 10^-5 M
  Specific migration without naloxone: 3,171
[2]
  T cell migration response compared with spontaneous locomotion: stimulatory
[3]; [5]
  type of locomotion stimulated: chemotactic

## Tyr-Gly-Gly-Phe-Met [MET-ENK, methionine-enkephalin]
[1]; donor 4, stimulus at 10- " M, naloxone 10^-5 M
  Specific migration with naloxone: 2
[1]; donor 4, stimulus at 10- " M
  Specific migration without naloxone: 830
[1]; [6]
  Effect of naloxone on specific migration (percent response): 12.8%
  Specific migration with naloxone: 335
[1]; [4]
  Effect of naloxone on specific migration (percent response): 24.8%
  Specific migration with naloxone: 768
[1]; donor 5, stimulus at 10^-5 M
  Specific migration without naloxone: 3,093
[3]; [5]
  type of locomotion stimulated: chemotactic

## [D-Ser2Leu']- enkephalin Thb [DSLET]
[2]
  T cell migration response compared with spontaneous locomotion: greater then spon- taneous locomotion

## [n-Ala-2,N-Me-Phe4Met(o)4-01]-enkephalin [FK 33-824]
[2]
  T cell migration response compared with spontaneous locomotion: greater then spon- taneous locomotion

## [o-Ala2 ,MePhe4,Gly(ol)'j-enkephalin [DAGO]
[2]
  T cell migration response compared with spontaneous locomotion: greater then spon- taneous locomotion

## cyclic [p-Pen2,n-Pen']-enkephalin [DPDPE]
[2]
  T cell migration response compared with spontaneous locomotion: greater then spon- taneous locomotion
